Experimental data taken from patent US9260459B2, “4,6-hexadecadiene-2,4-dicarboxylic acid derivative” (Kyowa Hakko Kirin Co., Ltd., priority 2012, dated 2016).

Test system: human cervical cancer cell line HeLa
Experiment: Cell growth inhibition test against human cervical cancer cells
Assay type: cell-based
Conditions: 72 hours culture, read-out: inhibited the cell growth; for inhibition at 20 µM: compound concentration 20 μmol/L; for inhibition at 200 µM: compound concentration 200 μmol/L
Procedure: As a cervical cancer cell line, a human cervical cancer cell line HeLa (DS Pharma Biomedical, Cat. No. EC93021013-F0) was used.
The cell line was cultured under conditions of 37° C. and 5% carbon dioxide.
The difference in absorbance in the well in which the cells were not treated with the compound was taken as 100%, and the difference in absorbance in the well in which the cells were not inoculated was taken as 0%, and the cell growth ratio (%) was calculated based on the difference in absorbance in the compound-treated group.

Structure (SMILES) | inhibition at 20 µM [%] | inhibition at 200 µM [%]
CCC(C)CC(C)CC(C)CC(C)/C=C(C)/C=C(/CC(C)C(=O)OC1C(=O)OC(C(=O)O)C1C(=O)O)C(=O)O (stereo not shown) [Compound 1, 4-{(4Z,6E)-4-Carboxy-2,6,8,10,12,14-hexamethylhexadec-4,6-dienoyloxy}-5-oxotetrahydrofuran-2,3-dicarboxylic Acid] | ≥ 90 | –
CCC(C)CC(C)CC(C)CC(C)/C=C(C)/C=C(/CC(C)C(=O)OC1C(=O)OC(C(=O)OC)C1C(=O)OC)C(=O)OC (stereo not shown) [Compound 5, Dimethyl 4-{(4Z,6E)-4-(methoxycarbonyl)-2,6,8,10,12,14-hexamethylhexadec-4,6-dienoyloxy}-5-oxotetrahydrofuran-2,3-dicarboxylate] | – | ≥ 90
CCC(C)CC(C)CC(C)CC(C)/C=C(C)/C=C(/CC(C)C(=O)OC(C(=O)O)C(C(=O)OC)C(O)C(=O)OC)C(=O)OC (stereo not shown) [Compound 6, 4-Hydroxy-5-methoxy-3-(methoxycarbonyl)-2-{(4Z,6E)-4-(methoxycarbonyl)-2,6,8,10,12,14-hexamethylhexadec-4,6-dienoyloxy}-5-oxopentanoic Acid] | – | ≥ 90
CCC(C)CC(C)CC(C)CC(C)/C=C(C)/C=C(/CC(C)C(=O)OC(C(=O)OC)C(C(=O)OC)C(O)C(=O)OC)C(=O)OC (stereo not shown) [Compound 7, Trimethyl 1-hydroxy-3-{(4Z,6E)-4(methoxycarbonyl)-2,6,8,10,12,14-hexamethylhexadec-4,6-dienoyloxy}-propane-1,2,3-tricarboxylate] | – | ≥ 90
CCC(C)CC(C)CC(C)CC(C)/C=C(C)/C=C(/CC(C)C(=O)O)C(=O)OC(C)(C)C (stereo not shown) [Compound 8, (4Z,6E)-4-(tert-Butoxycarbonyl)-2,6,8,10,12,14-hexamethylhexadec-4,6-dienoic Acid] | – | ≥ 90
CCC(C)CC(C)CC(C)CC(C)/C=C(C)/C=C(/CC(C)C(=O)OCC(=O)O)C(=O)O (stereo not shown) [Compound 9, (2Z,4E)-2-{3-(Carboxymethoxy)-2-methyl-3-oxopropyl}-4,6,8,10,12-pentamethyltetradec-2,4-dienoic Acid] | – | ≥ 90
CCC(C)CC(C)CC(C)CC(C)/C=C(C)/C=C(/CC(C)C(=O)OC)C(=O)O (stereo not shown) [Compound 10, (2Z,4E)-2-(3-Methoxy-2-methyl-3-oxopropyl)-4,6,8,10,12-pentamethyltetradec-2,4-dienoic Acid] | – | ≥ 90
CCC(C)CC(C)CC(C)CC(C)/C=C(C)/C=C(/CC(C)C(=O)OCCC(=O)O)C(=O)O (stereo not shown) [Compound 11, (2Z,4E)-2-{3-(2-Carboxyethoxy)-2-methyl-3-oxopropyl}-4,6,8,10,12-pentamethyltetradec-2,4-dienoic Acid] | – | ≥ 90
CCC(C)CC(C)CC(C)CC(C)/C=C(C)/C=C(/CC(C)C(=O)CCCC(=O)O)C(=O)O (stereo not shown) [Compound 12, (2Z,4E)-2-{3-(3-Carboxypropyl)-2-methyl-3-oxopropyl}-4,6,8,10,12-pentamethyltetradec-2,4-dienoic Acid] | – | ≥ 90
CCC(C)CC(C)CC(C)CC(C)/C=C(C)/C=C(/CC(C)C(=O)CCCO)C(=O)O (stereo not shown) [Compound 13, (2Z,4E)-2-{3-(3-Hydroxypropyl)-2-methyl-3-oxopropyl}-4,6,8,10,12-pentamethyltetradec-2,4-dienoic Acid] | – | ≥ 90
CCC(C)CC(C)CC(C)CC(C)/C=C(C)/C=C(/CC(C)C(=O)O[C@@H](CC(=O)O)C(=O)O)C(=O)O (stereo partly drawn) [Compound 14, (2S)-2-{(4Z,6E)-4-Carboxy-2,6,8,10,12,14-hexamethylhexadec-4,6-dienoyloxy}succinic Acid] | – | ≥ 90
CCC(C)CC(C)CC(C)CC(C)/C=C(C)/C=C(/CC(C)C(=O)O[C@H]1CCOC1=O)C(=O)O (stereo partly drawn) [Compound 15, (2Z,4E)-4,6,8,10,12-Pentamethyl-2-[2-methyl-3-oxo-3-{(S)-2-oxotetrahydrofuran-3-yloxy}propyl]tetradec-2,4-dienoic Acid] | – | ≥ 90
CCC(C)CC(C)CC(C)CC(C)/C=C(C)/C=C(/CC(C)C(=O)OCC[C@H](O)C(=O)O)C(=O)O (stereo partly drawn) [Compound 16, (2Z,4E)-2-[3-{(S)-3-Carboxy-3-hydroxypropoxy}-2-methyl-3-oxopropyl]-4,6,8,10,12-pentamethyltetradec-2,4-dienoic Acid] | – | ≥ 90
CCOP(=O)(OCC)O[C@H](C(=O)O)[C@H](OC(=O)C(C)C/C(=C/C(C)=C/C(C)CC(C)CC(C)CC(C)CC)C(=O)O)C(=O)O (stereo partly drawn) [Compound 17, (2S,3S)-2-{(4Z,6E)-4-Carboxy-2,6,8,10,12,14-hexamethylhexadec-4,6-dienoyloxy}-3-(diethoxyphosphoryloxy)succinic Acid] | – | ≥ 90
CCC(C)CC(C)CC(C)CC(C)/C=C(C)/C=C(/CC(C)C(=O)[C@@H](CC)C(=O)O)C(=O)O (stereo partly drawn) [Compound 18, (2Z,4E)-2-[3-{(R)-1-Carboxypropyl}-2-methyl-3-oxopropyl]-4,6,8,10,12-pentamethyltetradec-2,4-dienoic Acid] | – | ≥ 90
CCC(C)CC(C)CC(C)CC(C)/C=C(C)/C=C(/CC(C)C(=O)C[C@@H](O)CO)C(=O)O (stereo partly drawn) [Compound 19, (2Z,4E)-2-[3-{(R)-2,3-Dihydroxypropyl}-2-methyl-3-oxopropyl]-4,6,8,10,12-pentamethyltetradec-2,4-dienoic Acid] | – | ≥ 90
CCC(C)CC(C)CC(C)CC(C)/C=C(C)/C=C(/CC(C)C(=O)O[C@@H]1CCOC1=O)C(=O)O (stereo partly drawn) [Compound 20, (2Z,4E)-4,6,8,10,12-Pentamethyl-2-[2-methyl-3-oxo-3-{(R)-2-oxotetrahydrofuran-3-yloxy}propyl]tetradec-2,4-dienoic Acid] | – | ≥ 90
CCC(C)CC(C)CC(C)CC(C)/C=C(C)/C=C(/CC(C)C(=O)[C@@H]1COC(=O)C1)C(=O)O (stereo partly drawn) [Compound 21, (2Z,4E)-4,6,8,10,12-Pentamethyl-2-[2-methyl-3-oxo-3-{(S)-5-oxotetrahydrofuran-3-yl}propyl]tetradec-2,4-dienoic Acid] | – | ≥ 90
CCC(C)CC(C)CC(C)CC(C)/C=C(C)/C=C(/CC(C)C(=O)OC(C(=O)O)C(=O)O)C(=O)O (stereo not shown) [Compound 22, 2-{(4Z,6E)-4-Carboxy-2,6,8,10,12,14-hexamethylhexadec-4,6-dienoyloxy}malonic Acid] | – | ≥ 90
CCC(C)CC(C)CC(C)CC(C)/C=C(C)/C=C(/CC(C)C(=O)OC(C(=O)O)C(C(=O)O)C(=O)O)C(=O)O (stereo not shown) [Compound 23, 2-{(4Z,6E)-4-Carboxy-2,6,8,10,12,14-hexamethylhexadec-4,6-dienoyloxy}ethane-1,1,2-tricarboxylic Acid] | – | ≥ 90
CCC(C)CC(C)CC(C)CC(C)/C=C(C)/C=C(/CC(C)C(=O)OCC(CC(=O)O)C(=O)O)C(=O)O (stereo not shown) [Compound 24, 2-[{(4Z,6E)-4-Carboxy-2,6,8,10,12,14-hexamethylhexadec-4,6-dienoyloxy}methyl]succinic Acid] | – | ≥ 90
CCC(C)CC(C)CC(C)CC(C)/C=C(C)/C=C(/CC(C)C(=O)OC1C(=O)OC(C(=O)OCOC(C)=O)C1C(=O)OCOC(C)=O)C(=O)OCOC(C)=O (stereo not shown) [Compound 27, Di(acetoxymethyl) 4-{(4Z,6E)-4-(acetoxymethoxycarbonyl)-2,6,8,10,12,14-hexamethylhexadec-4,6-dienoyloxy}-5-oxotetrahydrofuran-2,3-dicarboxylate] | ≥ 90 | –
CCC(C)CC(C)CC(C)CC(C)/C=C(C)/C=C(/CC(C)C(=O)OCOC(C)=O)C(=O)O (stereo not shown) [Compound 28, (2Z,4E)-2-{3-(Acetoxymethoxy)-2-methyl-3-oxopropyl}-4,6,8,10,12-pentamethyltetradec-2,4-dienoic Acid] | – | ≥ 90
CCC(C)CC(C)CC(C)CC(C)/C=C(C)/C=C(/CC(C)C(=O)OCOC(C)=O)C(=O)OCOC(C)=O (stereo not shown) [Compound 29, Bis(acetoxymethyl) (Z)-2-methyl-4-{(E)-2,4,6,8,10-pentamethyldodec-2-enylidene}pentanedioate] | – | ≥ 90
CCC(C)CC(C)CC(C)CC(C)/C=C(C)/C=C(/CC(C)C(=O)OC(C(=O)O)C(C(=O)OCOC(C)=O)C(O)C(=O)OCOC(C)=O)C(=O)O (stereo not shown) [Compound 30, (2Z,4E)-2-[3-{4-(Acetoxymethoxy)-2-{(acetoxymethoxy)carbonyl}-1-carboxy-3-hydroxy-4-oxobutoxy}-2-methyl-3-oxopropyl]-4,6,8,10,12-pentamethyltetradec-2,4-dienoic Acid] | – | ≥ 90
